# Source: patent US20220132846A1, “1-PYRIDYL-PYRAZOLYL AMIDE COMPOUNDS AND PREPARATION AND USES THEREOF” (HUNAN RESEARCH INSTITUTE OF CHEMICAL INDUSTRY CO., LTD., priority 2019, published 2022)
# Read-outs that look alike come from different tables or passages of the source.
# Legend:
# Format in all cases: in vivo
# [1] = tested on: Armyworm (Mythimna separata (Walker)); test: Test against armyworm, Potter tower method; conditions: for mortality at 12.5 µg/mL / mortality at 50 µg/mL / mortality at 500 µg/mL: Mythimna separata, read-out: Activity (mortality) level against armyworm; for Activity against armyworm, further screening (in words): compared with chlorantraniliprole (D1)
# Description: Potter tower method: the test compound was dissolved in an appropriate solvent such as N,N-dimethylformamide, and then diluted with 0.2% aqueous solution of Tween 80 to the desired concentration, Those without the test compounds were set as blank controls. The fresh and tender corn leaves were taken and cut into fragments of basically the same size, then put into a Petri dish (diameter 90 mm) padded with filter paper in advance. Ten third-instar larvae of test insects were transferred into the dish and then placed under the Potter spray tower for being sprayed, each concentration treatment was sprayed at the amount of 1 mL and replicated 3 times. The dish was covered and then placed in a chamber for culture and observed regularly, after 72 hours, the dead insects was investigated and recorded and the mean mortality was calculated. […]
# [2] = tested on: Spodoptera litura (Fabricius); test: Test against Spodoptera litura, leaf disc dip; conditions: after 72 hours; for Median lethal concentration LC50 against Spodoptera litura, compared with D1: same conditions; for Activity against Spodoptera litura (in words): second-instar larvae
# Description: (§1) The test compound was dissolved in an appropriate solvent such as N,N-dimethylformamide, and then diluted with 0.2% aqueous solution of Tween 80 to the desired concentration, Those without the test compounds were set as blank controls, the treatments were replicated 3 times. The cabbage leaves were perforated to get 18 mm diameter leaf discs by a hole puncher, 5 leaf discs were dipped in the test solution for 10 seconds and then put into a Petri dish (diameter 90 mm) padded with moisturizing filter paper, after air-drying, the leaf discs were infested with no less than ten second-instar larvae of test insects which were starved for 4 hours, and then the dish was covered and placed in a chamber for culture. After 72 hours, the number of dead insects was investigated, the mortality was calculated, and the regression equation, correlation coefficient (r) and the median lethal concentration (LC50) were obtained using Probit analysis method.
# Aphis fabae = test: Test against aphid, leaf dip method (Aphis fabae); conditions: foliar; for mortality at 12.5 µg/mL / mortality at 50 µg/mL / mortality at 200 µg/mL / mortality at 500 µg/mL: read-out: Activity (mortality) level against Aphis fabae; for LC50: read-out: LC50 against Aphis fabae
# Description: For evaluating the activity of the compounds of this invention against Homoptera pests, Aphis fabae, wheat aphids, etc. were selected as the test insects, and the activity of the compounds of this invention against aphids was measured by leaf dip method indoors.
# Leaf dip method (Aphis fabae): the test compound was dissolved in an appropriate solvent such as N,N-dimethylformamide, and then diluted with 0.2% aqueous solution of Tween 80 to the desired concentration, Those without the test compounds were set as blank controls, the treatments were replicated 3 times. Horsebean seedlings with no less than twenty 3-day-old Aphis fabae per plant was cut from the stem, 5 horsebean seedlings with the insects were dipped in the test solution for 5 seconds, then inserted into a sponge filled with water after sucked dry using filter paper, then covered with a glass tube and placed in a chamber for culture. After 24 hours, the number of living and dead insects were investigated and the results were averaged. […]
# [3] = tested on: Diamondback moth (Plutella xylostella (Linnaeus)); test: Test against diamondback moth, leaf disc dip; conditions: after 72 hours; for LC50: Plutella xylostella, foliar, read-out: Lethal medium concentration LC50 against diamondback moth; for Activity against diamondback moth (in words): second-instar larvae
# Description: as §1
# [4] = 12.5 mg/L, third-instar larvae, after 72 hours
# [5] = 50 mg/L, third-instar larvae, after 72 hours
# [6] = 500 mg/L, third-instar larvae, after 72 hours
Compound,"mortality at 12.5 µg/mL [1, 4]","mortality at 50 µg/mL [1, 5]","mortality at 500 µg/mL [1, 6]","Activity against armyworm, further screening (in words) [1]",Activity against Spodoptera litura (in words) [2],"mortality at 12.5 µg/mL (Aphis fabae; 12.5 mg/L, after 24 hours)","mortality at 50 µg/mL (Aphis fabae; 50 mg/L, after 24 hours)","mortality at 200 µg/mL (Aphis fabae; 200 mg/L, after 24 hours)","mortality at 500 µg/mL (Aphis fabae; 500 mg/L, after 24 hours)",LC50 (Aphis fabae; further test),Activity against diamondback moth (in words) [3],also measured
"CNC(=O)c1cc(Cl)cc(Cl)c1N(C)C(=O)c1cc(Br)nn1-c1ncccc1Cl [Compound 1, N-[2,4-dichloro-6-[(methylamino)carbonyl]phenyl]-N-methyl-1-(3-chloro-2-pyridinyl)-3-bromo-1H-pyrazole-5-carboxamide]",90 to 100%,90 to 100%,90 to 100%,excellent activity,high activity at very low concentration,90 to 100%,90 to 100%,90 to 100%,90 to 100%,< 1 µg/mL,high activity at very low concentration,"Activity against armyworm ([1]; 1.25 mg/L): 75%; Median lethal concentration LC50 against Spodoptera litura, compared with D1 [2]: lower than that of chlorantraniliprole (D1); LC50 [3]: < 1 µg/mL"
"CCNC(=O)c1cc(Cl)cc(Cl)c1N(C)C(=O)c1cc(Br)nn1-c1ncccc1Cl [Compound 2, N-[2,4-dichloro-6-[(ethylamino)carbonyl]phenyl]-N-methyl-1-(3-chloro-2-pyridinyl)-3-bromo-1H-pyrazole-5-carboxamide]",90 to 100%,90 to 100%,90 to 100%,excellent activity,high activity at very low concentration,90 to 100%,90 to 100%,90 to 100%,90 to 100%,< 1 µg/mL,high activity at very low concentration,"Median lethal concentration LC50 against Spodoptera litura, compared with D1 [2]: lower than that of chlorantraniliprole (D1); LC50 [3]: < 1 µg/mL"
"CCN(C(=O)c1cc(Br)nn1-c1ncccc1Cl)c1c(Cl)cc(Cl)cc1C(=O)NC [Compound 9, N-[2,4-dichloro-6-[(methylamino)carbonyl]phenyl]-N-ethyl-1-(3-chloro-2-pyridinyl)-3-bromo-1H-pyrazole-5-carboxamide]",–,90 to 100%,90 to 100%,excellent activity,high activity at very low concentration,90 to 100%,90 to 100%,90 to 100%,90 to 100%,–,high activity at very low concentration,–
"CCNC(=O)c1cc(Cl)cc(Cl)c1N(CC)C(=O)c1cc(Br)nn1-c1ncccc1Cl [Compound 10, N-[2,4-dichloro-6-[(ethylamino)carbonyl]phenyl]-N-ethyl-1-(3-chloro-2-pyridinyl)-3-bromo-1H-pyrazole-5-carboxamide]",90 to 100%,90 to 100%,90 to 100%,excellent activity,high activity at very low concentration,90 to 100%,90 to 100%,90 to 100%,90 to 100%,< 1 µg/mL,high activity at very low concentration,"Median lethal concentration LC50 against Spodoptera litura, compared with D1 [2]: lower than that of chlorantraniliprole (D1)"
"CN(C)C(=O)c1cc(Cl)cc(Cl)c1N(C)C(=O)c1cc(Br)nn1-c1ncccc1Cl [Compound 11, N-[2,4-dichloro-6-[(dimethylamino)carbonyl]phenyl]-N-methyl-1-(3-chloro-2-pyridinyl)-3-bromo-1H-pyrazole-5-carboxamide]",90 to 100%,90 to 100%,90 to 100%,excellent activity,high activity at very low concentration,90 to 100%,90 to 100%,90 to 100%,90 to 100%,< 1 µg/mL,high activity at very low concentration,LC50 [3]: < 1 µg/mL
"CCN(C)C(=O)c1cc(Cl)cc(Cl)c1N(C)C(=O)c1cc(Br)nn1-c1ncccc1Cl [Compound 12, N-[2,4-dichloro-6-[(methyl(ethyl)amino)carbonyl]phenyl]-N-methyl-1-(3-chloro-2-pyridinyl)-3-bromo-1H-pyrazole-5-carboxamide]",90 to 100%,90 to 100%,90 to 100%,excellent activity,high activity at very low concentration,90 to 100%,90 to 100%,90 to 100%,90 to 100%,–,high activity at very low concentration,–
"CCCN(C)C(=O)c1cc(Cl)cc(C)c1N(C)C(=O)c1cc(Br)nn1-c1ncccc1Cl [Compound 46, N-[2-methyl-4-chloro-6-[(methyl(propyl)amino)carbonyl]phenyl]-N-methyl-1-(3-chloro-2-pyridinyl)-3-bromo-1H-pyrazole-5-carboxamide]",–,90 to 100%,90 to 100%,–,–,–,–,90 to 100%,90 to 100%,–,–,–
"Cc1cc(Cl)cc(C(=S)N(C)C)c1N(C)C(=O)c1cc(Br)nn1-c1ncccc1Cl [Compound 47, N-[2-methyl-4-chloro-6-[(dimethylamino)thioxomethyl]phenyl]-N-methyl-1-(3-chloro-2-pyridinyl)-3-bromo-1H-pyrazole-5-carboxamide]",–,90 to 100%,90 to 100%,–,–,90 to 100%,90 to 100%,90 to 100%,90 to 100%,–,–,–
"CCN(CC)C(=O)c1cc(Br)cc(C)c1N(C)C(=O)c1cc(Br)nn1-c1ncccc1Cl [Compound 48, N-[2-methyl-4-bromo-6-[(diethylamino)carbonyl]phenyl]-N-methyl-1-(3-chloro-2-pyridinyl)-3-bromo-1H-pyrazole-5-carboxamide]",–,90 to 100%,90 to 100%,–,–,–,–,–,90 to 100%,–,–,–
"CCN(CC)C(=O)c1cc(Br)cc(C)c1N(CC)C(=O)c1cc(Br)nn1-c1ncccc1Cl [Compound 49, N-[2-methyl-4-bromo-6-[(diethylamino)carbonyl]phenyl]-N-ethyl-1-(3-chloro-2-pyridinyl)-3-bromo-1H-pyrazole-5-carboxamide]",–,90 to 100%,90 to 100%,–,–,–,–,90 to 100%,90 to 100%,–,–,–
"CNC(=O)c1cc(C#N)cc(C)c1NC(=O)c1cc(Br)nn1-c1ncccc1Cl [Compound D2, cyantraniliprole, reference compound]",–,–,–,–,–,–,–,–,–,–,–,mortality at 12.5 µg/mL ([1]; 72 h): 90 to 100%; mortality at 50 µg/mL ([1]; 72 h): 90 to 100%; mortality at 500 µg/mL ([1]; 72 h): 90 to 100%; mortality at 12.5 µg/mL (Aphis fabae; 24 h): 90 to 100%; mortality at 50 µg/mL (Aphis fabae; 24 h): 90 to 100%; mortality at 200 µg/mL (Aphis fabae; 24 h): 90 to 100%; mortality at 500 µg/mL (Aphis fabae; 24 h): 90 to 100%; LC50 (Aphis fabae): > 1 µg/mL
"CC(NC(=O)c1cc(Cl)cc(Br)c1NC(=O)c1cc(Br)nn1-c1ncccc1Cl)C1CC1 (stereo not shown) [Compound D3, cyclaniliprole, reference compound]",–,–,–,–,–,–,–,–,–,–,–,mortality at 12.5 µg/mL ([1]; 72 h): 70 to 90%; mortality at 50 µg/mL ([1]; 72 h): 90 to 100%; mortality at 500 µg/mL ([1]; 72 h): 90 to 100%; mortality at 12.5 µg/mL (Aphis fabae; 24 h): 90 to 100%; mortality at 50 µg/mL (Aphis fabae; 24 h): 90 to 100%; mortality at 200 µg/mL (Aphis fabae; 24 h): 90 to 100%; mortality at 500 µg/mL (Aphis fabae; 24 h): 90 to 100%; LC50 (Aphis fabae): > 1 µg/mL
